Source: PubChem BioAssay AID1259407 (Chemical Carcinogenesis Research Information System (CCRIS), 2018)
Calls of active or inactive are those of the source. The rule behind the calls is not given here.

System: CCRIS mutagenicity, Ames/micronucleus/aberration tests
Test: CCRIS mutagenicity studies
Settings: Test System: AMES SALMONELLA TYPHIMURIUM

Measured: mutagenic call

CCNc1nc(Cl)nc(NC(C)C)n1
inactive: Strain/Indicator: TA97, Metabolic Activation: HAMSTER, LIVER, S-9, AROCLOR 1254 (10%), Method: PREINCUBATION inactive; negative | Strain/Indicator: TA97, Metabolic Activation: HAMSTER, LIVER, S-9, AROCLOR 1254 (30%), Method: PREINCUBATION inactive; negative | Strain/Indicator: TA97, Metabolic Activation: NONE, Method: PREINCUBATION inactive; negative | Strain/Indicator: TA97, Metabolic Activation: NONE, Method: STANDARD PLATE inactive; negative | Strain/Indicator: TA97, Metabolic Activation: RAT, LIVER, S-9, AROCLOR 1254 (10%), Method: PREINCUBATION inactive; negative | Strain/Indicator: TA97, Metabolic Activation: RAT, LIVER, S-9, AROCLOR 1254 (30%), Method: PREINCUBATION inactive; negative | Strain/Indicator: TA97, Metabolic Activation: RAT, LIVER, S-9, AROCLOR 1254, Method: STANDARD PLATE inactive; negative | Strain/Indicator: TA97A, Metabolic Activation: NONE, Method: STANDARD PLATE inactive; negative | Strain/Indicator: TA97A, Metabolic Activation: RAT, LIVER, S-9, AROCLOR 1254, Method: STANDARD PLATE inactive; negative | Strain/Indicator: TA98, Metabolic Activation: HAMSTER, LIVER, S-9, AROCLOR 1254 (10%), Method: PREINCUBATION inactive; negative | Strain/Indicator: TA98, Metabolic Activation: HAMSTER, LIVER, S-9, AROCLOR 1254 (30%), Method: PREINCUBATION inactive; negative | Strain/Indicator: TA98, Metabolic Activation: NONE inactive; negative | Strain/Indicator: TA98, Metabolic Activation: NONE, Method: PREINCUBATION inactive; negative | Strain/Indicator: TA98, Metabolic Activation: PIG, LIVER, S-9, SODIUM PHENOBARBITAL AND BETA-NAPHTHOFLAVONE, Method: STANDARD PLATE inactive; negative | Strain/Indicator: TA98, Metabolic Activation: RAT, LIVER, S-9, AROCLOR 1254 inactive; negative | Strain/Indicator: TA98, Metabolic Activation: RAT, LIVER, S-9, AROCLOR 1254 (10%), Method: PREINCUBATION inactive; negative | Strain/Indicator: TA98, Metabolic Activation: RAT, LIVER, S-9, AROCLOR 1254 (30%), Method: PREINCUBATION inactive; negative | Strain/Indicator: TA98, Metabolic Activation: RAT, LIVER, S-9, AROCLOR 1254, Method: STANDARD PLATE inactive; negative | Strain/Indicator: TA98, Metabolic Activation: S-9, Method: STANDARD PLATE inactive; negative | Strain/Indicator: TA100, Metabolic Activation: HAMSTER, LIVER, S-9, AROCLOR 1254 (10%), Method: PREINCUBATION inactive; negative | Strain/Indicator: TA100, Metabolic Activation: HAMSTER, LIVER, S-9, AROCLOR 1254 (30%), Method: PREINCUBATION inactive; negative | Strain/Indicator: TA100, Metabolic Activation: NONE inactive; negative | Strain/Indicator: TA100, Metabolic Activation: NONE, Method: PREINCUBATION inactive; negative | Strain/Indicator: TA100, Metabolic Activation: PIG, LIVER, S-9, SODIUM PHENOBARBITAL AND BETA-NAPHTHOFLAVONE, Method: STANDARD PLATE inactive; negative | Strain/Indicator: TA100, Metabolic Activation: RAT, LIVER, S-9, AROCLOR 1254 inactive; negative | Strain/Indicator: TA100, Metabolic Activation: RAT, LIVER, S-9, AROCLOR 1254 (10%), Method: PREINCUBATION inactive; negative | Strain/Indicator: TA100, Metabolic Activation: RAT, LIVER, S-9, AROCLOR 1254 (30%), Method: PREINCUBATION inactive; negative | Strain/Indicator: TA100, Metabolic Activation: RAT, LIVER, S-9, AROCLOR 1254, Method: STANDARD PLATE inactive; negative | Strain/Indicator: TA100, Metabolic Activation: S-9, Method: STANDARD PLATE inactive; negative | Strain/Indicator: TA102, Metabolic Activation: NONE inactive; negative | Strain/Indicator: TA102, Metabolic Activation: NONE, Method: STANDARD PLATE inactive; negative | Strain/Indicator: TA102, Metabolic Activation: RAT, LIVER, S-9, AROCLOR 1254 inactive; negative | Strain/Indicator: TA102, Metabolic Activation: RAT, LIVER, S-9, AROCLOR 1254, Method: STANDARD PLATE inactive; negative | Strain/Indicator: TA1535, Metabolic Activation: HAMSTER, LIVER, S-9, AROCLOR 1254 (10%), Method: PREINCUBATION inactive; negative | Strain/Indicator: TA1535, Metabolic Activation: HAMSTER, LIVER, S-9, AROCLOR 1254 (30%), Method: PREINCUBATION inactive; negative | Strain/Indicator: TA1535, Metabolic Activation: NONE inactive; negative | Strain/Indicator: TA1535, Metabolic Activation: NONE, Method: PREINCUBATION inactive; negative | Strain/Indicator: TA1535, Metabolic Activation: NONE, Method: STANDARD PLATE inactive; negative | Strain/Indicator: TA1535, Metabolic Activation: RAT, LIVER, S-9, AROCLOR 1254 inactive; negative | Strain/Indicator: TA1535, Metabolic Activation: RAT, LIVER, S-9, AROCLOR 1254 (10%), Method: PREINCUBATION inactive; negative | Strain/Indicator: TA1535, Metabolic Activation: RAT, LIVER, S-9, AROCLOR 1254 (30%), Method: PREINCUBATION inactive; negative | Strain/Indicator: TA1535, Metabolic Activation: RAT, LIVER, S-9, AROCLOR 1254, Method: STANDARD PLATE inactive; negative | Strain/Indicator: TA1537, Metabolic Activation: HAMSTER, LIVER, S-9, AROCLOR 1254 (10%), Method: PREINCUBATION inactive; negative | Strain/Indicator: TA1537, Metabolic Activation: HAMSTER, LIVER, S-9, AROCLOR 1254 (30%), Method: PREINCUBATION inactive; negative | Strain/Indicator: TA1537, Metabolic Activation: NONE inactive; negative | Strain/Indicator: TA1537, Metabolic Activation: NONE, Method: PREINCUBATION inactive; negative | Strain/Indicator: TA1537, Metabolic Activation: NONE, Method: STANDARD PLATE inactive; negative | Strain/Indicator: TA1537, Metabolic Activation: RAT, LIVER, S-9, AROCLOR 1254 inactive; negative | Strain/Indicator: TA1537, Metabolic Activation: RAT, LIVER, S-9, AROCLOR 1254 (10%), Method: PREINCUBATION inactive; negative | Strain/Indicator: TA1537, Metabolic Activation: RAT, LIVER, S-9, AROCLOR 1254 (30%), Method: PREINCUBATION inactive; negative | Strain/Indicator: TA1537, Metabolic Activation: RAT, LIVER, S-9, AROCLOR 1254, Method: STANDARD PLATE inactive; negative | Strain/Indicator: TA1538, Metabolic Activation: NONE, Method: STANDARD PLATE inactive; negative | Strain/Indicator: TA1538, Metabolic Activation: RAT, LIVER, S-9, AROCLOR 1254, Method: STANDARD PLATE inactive; negative
